The results in this text go back to US12540128B2, “Substituted pyridazinones as herbicides” (SYNGENTA CROP PROTECTION AG, priority 2019, dated 2026).

What all share (assay type): in vivo
Common to all, as to conditions: 250 g/ha, after 13 days

Test [1] relates to Zea Mays (ZEAMX). Put plainly: B2 Post-Emergence Efficacy Test 2. The protocol:
(§1) Seeds of a variety of test species are sown in standard soil in pots:— Amaranthus retoflexus (AMARE), Setaria faberi (SETFA), Echinochloa crus-galli (ECHCG), Ipomoea hederacea (IPOHE), Zea Mays (ZEAMX), Abutilon theophrasti (ABUTH). After 8 days cultivation (post-emergence) under controlled conditions in a glasshouse (at 24/16° C., day/night; 14 hours light; 65% humidity), the plants are sprayed with an aqueous spray solution derived from the formulation of the technical active ingredient in acetone/water (50:50) solution containing 0.5% Tween 20 (polyoxyethylene sorbitan monolaurate, CAS RN 9005-64-5). Compounds are applied at 250 g/ha. The test plants are then grown in a glasshouse under controlled conditions in a glasshouse (at 24/16° C., day/night; 14 hours light; 65% humidity) and watered twice daily. After 13 days, the test is evaluated for the percentage damage caused to the plant. The biological activities are assessed on a five point scale (5=80-100%; 4=60-79%; 3=40-59%; 2=20-39%; 1=0-19%). A blank value in the table is indicative that the compound was not tested on that species.

The test system of test [2] is Echinochloa crus-galli (ECHCG). Kind of test: B2 Post-Emergence Efficacy Test 2. The method, then:
as §1

The test system of test [3] is Setaria faberi (SETFA). Kind of test: B2 Post-Emergence Efficacy Test 2. The protocol: as §1
The test system of test [4] is Abutilon theophrasti (ABUTH). Kind of test: B2 Post-Emergence Efficacy Test 2. The protocol: as §1
Test [5] deals with Amaranthus retoflexus (AMARE). Put plainly: B2 Post-Emergence Efficacy Test 2. The method, then: as §1
Test [6] deals with Ipomoea hederacea (IPOHE). Put plainly: B2 Post-Emergence Efficacy Test 2. The protocol:
as §1

Test [7] has as its system Zea Mays (ZEAMX). Kind of test: B4 Pre-Emergence Efficacy Test 2. The protocol: (§2) Seeds of a variety of test species were sown in standard soil in pots: Amaranthus retoflexus (AMARE), Setaria faberi (SETFA), Echinochloa crus-galli (ECHCG), Ipomoea hederacea (IPOHE), Zea Mays (ZEAMX), Abutilon theophrasti (ABUTH). After cultivation for one day (pre-emergence) under controlled conditions in a glasshouse (at 24/16° C., day/night; 14 hours light; 65% humidity), the plants were sprayed with an aqueous spray solution derived from the formulation of the technical active ingredient in acetone/water (50:50) solution containing 0.5% Tween 20 (polyoxyethelyene sorbitan monolaurate, CAS RN 9005-64-5). Compounds are applied at 250 g/ha. The test plants were then grown in a glasshouse under controlled conditions (at 24/16° C., day/night; 14 hours light; 65% humidity) and watered twice daily. After 13 days, the test is evaluated for the percentage damage caused to the plant. The biological activities are assessed on a five point scale (5=80-100%; 4=60-79%; 3=40-59%; 2=20-39%; 1=0-19%). A blank value in the table is indicative that the compound was not tested on that species.

Test [8] concerns Echinochloa crus-galli (ECHCG). Put plainly: B4 Pre-Emergence Efficacy Test 2. The method, then:
as §2

In test [9] the test system is Setaria faberi (SETFA). Put plainly: B4 Pre-Emergence Efficacy Test 2. The protocol:
as §2

In test [10] the test system is Abutilon theophrasti (ABUTH). Put plainly: B4 Pre-Emergence Efficacy Test 2. The protocol: as §2
The subject of test [11] is Amaranthus retoflexus (AMARE). Kind of test: B4 Pre-Emergence Efficacy Test 2. The protocol:
as §2

Test [12] has as its system Ipomoea hederacea (IPOHE). Kind of test: B4 Pre-Emergence Efficacy Test 2. The protocol:
as §2

`Cc1nn(C)c(=O)c(-c2c(F)ccc(Cl)c2CCc2ccc3c(c2)OC(C)(C)C3)c1O` [Compound 1.340]: the “percentage damage caused to the plant, five point scale, ZEAMX” value (“percentage damage caused … ZEAMX” for short) is 5 (5=80-100%) in the test on Zea Mays (ZEAMX) [1] and 3 (3=40-59%) with Zea Mays (ZEAMX) [7]. For the same molecule, the “percentage damage caused to the plant, five point scale, ECHCG” value (from here on “percentage damage caused … ECHCG”) in [2] and in [8] was 5 (5=80-100%) each time. Also, the “percentage damage caused to the plant, five point scale, SETFA” value (from here on “percentage damage caused … SETFA”) with Setaria faberi (SETFA) [3] and in the test on Setaria faberi (SETFA) [9] was 5 (5=80-100%) throughout. Besides, the “percentage damage caused to the plant, five point scale, ABUTH” value (from here on “percentage damage caused … ABUTH”) in test [4] and in [10] was 5 (5=80-100%) in each case. Further, the “percentage damage caused to the plant, five point scale, AMARE” value (from here on “percentage damage caused … AMARE”) in test [5] and in test [11] was 5 (5=80-100%) each time. Also, the “percentage damage caused to the plant, five point scale, IPOHE” value (from here on “percentage damage caused … IPOHE”) in test [6] is recorded as 4 (4=60-79%); in test [12], 5 (5=80-100%).
As to `Cc1nc2ccc(CCc3c(Cl)ccc(F)c3-c3c(O)c(C)nn(C)c3=O)cc2o1` [Compound 1.341], the “percentage damage caused … ZEAMX” value in the test on Zea Mays (ZEAMX) [1] and in the test on Zea Mays (ZEAMX) [7] was 4 (4=60-79%) each time. Further, the “percentage damage caused … ECHCG” value in test [2] and in test [8] was 5 (5=80-100%) throughout. Further, the “percentage damage caused … SETFA” value in the test with Setaria faberi (SETFA) [3] is recorded as 4 (4=60-79%); in the test on Setaria faberi (SETFA) [9], 5 (5=80-100%). Besides, the “percentage damage caused … ABUTH” value in test [4] and in test [10] was 5 (5=80-100%) each time. Also, the “percentage damage caused … AMARE” value in [5] and in test [11] was 5 (5=80-100%) in each case. Further, the “percentage damage caused … IPOHE” value in [6] and in test [12] was 5 (5=80-100%) each time.
For `Cc1nn(C)c(=O)c(-c2c(F)ccc(Cl)c2CCc2cnc3c(ccn3C)c2)c1O` [Compound 1.345], the figures for the “percentage damage caused … ZEAMX” value in the test on Zea Mays (ZEAMX) [1] and with Zea Mays (ZEAMX) [7] were 2 (2=20-39%) and 1 (1=0-19%), respectively. Moreover, the “percentage damage caused … ECHCG” value is reported as 3 (3=40-59%) in test [2] and 2 (2=20-39%) in test [8]. Besides, the “percentage damage caused … SETFA” value was 4 (4=60-79%) with Setaria faberi (SETFA) [3] and 5 (5=80-100%) with Setaria faberi (SETFA) [9]. Moreover, the “percentage damage caused … ABUTH” value in [4] and in [10] was 4 (4=60-79%) throughout. Further, the entries for the “percentage damage caused … AMARE” value in test [5] and in test [11] were 4 (4=60-79%) and 5 (5=80-100%), respectively. Also, the “percentage damage caused … IPOHE” value in [6] is 4 (4=60-79%); in [12], 5 (5=80-100%).
On to `Cc1nn(C)c(=O)c(-c2c(F)ccc(Cl)c2CCc2ccc3occc3c2)c1O` [Compound 1.346], for which the entries for the “percentage damage caused … ZEAMX” value with Zea Mays (ZEAMX) [1] and in the test with Zea Mays (ZEAMX) [7] were 2 (2=20-39%) and 1 (1=0-19%), respectively. For the same molecule, the “percentage damage caused … ECHCG” value in test [2] is 4 (4=60-79%); in test [8], 0. The “percentage damage caused … SETFA” value in the test on Setaria faberi (SETFA) [3] and in the test with Setaria faberi (SETFA) [9] was 0 throughout. Moreover, the “percentage damage caused … ABUTH” value in test [4] and in [10] was 4 (4=60-79%) each time. The “percentage damage caused … AMARE” value in [5] was 2 (2=20-39%); in test [11], 3 (3=40-59%). The “percentage damage caused … IPOHE” value in [6] and in test [12] was 3 (3=40-59%) throughout.
Regarding `Cc1nn(C)c(=O)c(-c2c(F)ccc(Cl)c2CCc2ccc3ccsc3c2)c1O` [Compound 1.347], the “percentage damage caused … ZEAMX” value in the test on Zea Mays (ZEAMX) [1] is on record as 4 (4=60-79%); with Zea Mays (ZEAMX) [7], 3 (3=40-59%). Also, the “percentage damage caused … ECHCG” value is recorded as 4 (4=60-79%) in test [2] and 2 (2=20-39%) in [8]. For the same molecule, the “percentage damage caused … SETFA” value in the test on Setaria faberi (SETFA) [3] is recorded as 4 (4=60-79%); with Setaria faberi (SETFA) [9], 3 (3=40-59%). The figures for the “percentage damage caused … ABUTH” value in [4] and in test [10] were 4 (4=60-79%) and 5 (5=80-100%), respectively. Further, the “percentage damage caused … AMARE” value in test [5] is 4 (4=60-79%); in test [11], 5 (5=80-100%). The entries for the “percentage damage caused … IPOHE” value in [6] and in test [12] were 4 (4=60-79%) and 5 (5=80-100%), respectively.
`Cc1nn(C)c(=O)c(-c2c(F)ccc(Cl)c2CCc2ccc3sccc3c2)c1O` [Compound 1.348]: the “percentage damage caused … ZEAMX” value with Zea Mays (ZEAMX) [1] is recorded as 4 (4=60-79%); in the test with Zea Mays (ZEAMX) [7] it was 1 (1=0-19%). The “percentage damage caused … ECHCG” value in test [2] and in test [8] was 4 (4=60-79%) throughout. Besides, the “percentage damage caused … SETFA” value is 4 (4=60-79%) in the test on Setaria faberi (SETFA) [3] and 3 (3=40-59%) in the test with Setaria faberi (SETFA) [9]. Besides, the “percentage damage caused … ABUTH” value in test [4] and in test [10] was 3 (3=40-59%) in each case. The “percentage damage caused … AMARE” value in [5] is recorded as 4 (4=60-79%); in test [11], 5 (5=80-100%). Moreover, the “percentage damage caused … IPOHE” value in [6] is 4 (4=60-79%); in [12] it was 5 (5=80-100%).
Take `Cc1nn(C)c(=O)c(-c2c(F)ccc(Cl)c2CCc2ccc3ncsc3c2)c1O` [Compound 1.349]: the “percentage damage caused … ZEAMX” value with Zea Mays (ZEAMX) [1] is 2 (2=20-39%); with Zea Mays (ZEAMX) [7], 4 (4=60-79%). Moreover, the “percentage damage caused … ECHCG” value is reported as 4 (4=60-79%) in test [2] and 5 (5=80-100%) in test [8]. Besides, the “percentage damage caused … SETFA” value in the test with Setaria faberi (SETFA) [3] is given as 4 (4=60-79%); in the test with Setaria faberi (SETFA) [9], 5 (5=80-100%). The “percentage damage caused … ABUTH” value in test [4] and in [10] was 4 (4=60-79%) throughout. Besides, the figures for the “percentage damage caused … AMARE” value in test [5] and in [11] were 4 (4=60-79%) and 5 (5=80-100%), respectively. For the same molecule, the “percentage damage caused … IPOHE” value in test [6] is 4 (4=60-79%); in test [12], 5 (5=80-100%).
Regarding `Cc1nn(C)c(=O)c(-c2c(F)ccc(Cl)c2CCc2ccc3scnc3c2)c1O` [Compound 1.350, 4-[2-[2-(1,3-benzothiazol-5-yl)ethyl]-3-chloro-6-fluoro-phenyl]-5-hydroxy-2,6-dimethyl-pyridazin-3-one], the “percentage damage caused … ZEAMX” value in the test with Zea Mays (ZEAMX) [1] is listed as 3 (3=40-59%); in the test with Zea Mays (ZEAMX) [7], 4 (4=60-79%). Moreover, the “percentage damage caused … ECHCG” value was 4 (4=60-79%) in test [2] and 5 (5=80-100%) in test [8]. For the same molecule, the “percentage damage caused … SETFA” value is listed as 4 (4=60-79%) with Setaria faberi (SETFA) [3] and 5 (5=80-100%) in the test on Setaria faberi (SETFA) [9]. In addition, the “percentage damage caused … ABUTH” value in [4] and in [10] was 5 (5=80-100%) throughout. Moreover, the “percentage damage caused … AMARE” value is reported as 4 (4=60-79%) in test [5] and 5 (5=80-100%) in test [11]. The results for the “percentage damage caused … IPOHE” value in test [6] and in test [12] were 3 (3=40-59%) and 5 (5=80-100%), respectively.
